Measured values: patent publication US20180362473A1, “BIOORTHOGONAL METHODS AND COMPOUNDS” (The University Court of the University of Edinburgh, priority 2013, published 2018)
Read-outs that look alike come from different tables or passages of the source.

Tests used:
Format in all cases: cell-based
pancreatic BxPC-3 cells [1] = experiment: PrestoBlue cell viability assay, 5 days treatment; conditions: for toxigenic effect of prodrug combined with Pd^0-resins (BOOM conversion): BxPC-3, prodrug 30 μM + Pd^0-resin 1 mg/mL; for EC50: Homo sapiens, 120 h, PrestoBlue
Experimental: (§1) The toxicities of 5FU and its prodrugs were compared by performing dose-response studies with 5FU and Pro-5FU (0.01 μM to 1 mM). Doses of Pro-5FU and 5FU (0.01, 0.03, 0.1, 0.3, 1, 3, 10, 30 and 100 μM, for both cell lines, and additional doses of 300 μM and 1,000 μM for colorectal HCT116 cells) were incubated with cells for 5 days and cell viability measured to determine the corresponding EC values. Cell viability was analysed by fluoresce intensity nm; nm) after 45 min incubation with PrestoBlue™ Reagent (Life Technologies).
(§2) The toxigenic effect as a result of in situ generation of 5FU in cell culture was determined by incubating colorectal HCT116 cells or pancreatic BXPc-3 cells in tissue culture media containing 0.1% (viv) DMSO and a) Pd^0-resin (1 mg/mL, negative control); b) prodrug (negative, control); or c) Pd^0-resin (1 mg prodrug (reaction assay). Cells incubated in 0.1% (v/v) DMSO in media was used as an untreated cell reference standard (100% viability). A PrestoBlue® cell viability assay as described above was carried out and fluorescent intensities compared to the untreated cell control. Prodrug concentrations were 100 μM for HCT116 cells, and 30 μM for BxPC-3 cells.
(§3) HCT116 and BXPc-3 cells were plated in Dulbecco's Modified Eagle Media (DMEM) and Roswell Park Memorial Institute (RPMI) respectively, supplemented with serum (10% FBS) and L-glutamine (2 mM). Cells were seeded in a 96 wail plate format with a density of either 30.000 cells and incubated for 48 h at 37° C. and 5% CO2 before treatment. Each well was then replaced with fresh media containing: Pd^0-resins (1 mg/ml) (negative control); prodrug (0.01 μM to 1 mM) in DMSO (0.1% v/v) (negative control); 5FU (0.01 μM to 1 mM) in DMSO (0.1% v/v) (positive control); or a combination of Pd^0 resin+prodrug (0.01 μM to 1 mM in 0.1% v/v DMSO). Cells incubated in 0.1% (v/v) DMSO in media were used as untreated cell reference standard (i.e. 100% cell viability). Cells were incubated in the fresh media for 5 days. PrestoBlue cell viability reagent (Life Technologies) (10% v/v) was then added to each well and the plate incubated for 45 min, Fluorescence intensity values (detected using a PerkinElmer EnVision 2101 multilabel reader with excitation filter at 540 nm and emissions filter at 590 nm) were determined relative to the untreated cell control.

colorectal HCT116 cells [2] = experiment: PrestoBlue cell viability assay, 5 days treatment; conditions: for toxigenic effect of prodrug combined with Pd^0-resins (BOOM conversion): HCT116, prodrug 100 μM + Pd^0-resin 1 mg/mL; for cytotoxic effect / effect on cell viability of prodrug alone: HCT116, without palladium, 5 days, doses up to 1,000 μM (FIG. 18A: 0.1-300 μM)
Experimental: as §1, §2, §3

[3] = test system: total p53 protein and phosphorylated p53 (Serine 15) in HCT116 cells; experiment: Zeptosens Reverse Phase Protein Microarray analysis; conditions: HCT116, 100 μM, 24 h exposure
Experimental: Post-translational modifications of cancer relevant pathways (including p53) were quantified by antibody-based proteomics across time-series studies using Zeptosens Reverse Phase Protein Microarray analysis.
Cells were plated in their respective supplemented media in a 6 well plate at a density of 240,000 cells/mL and incubated for 46 h. Before adding to the cells, Fro-5FU (100 μM for HCT116) and Pd^0-resins (1 mg/mL) were incubated for 24h to overcome the time relapse required to convert Pro-5FU into 5FU. Cells were treated with the Pd^8 resin+Pro-5FU combination and the controls (as before: untreated cells; Pd^0; Pro-5FU; and 5FU) and incubated for 6 and 24 h. Afterwards, the cells were washed with PBS (2×3 mL) and lysed with Zeptosens CLB1 lysis buffer (90 μl). Samples were analyzed by Zeptosens RPPA using the following specific conditions. Tumor cell lysates were normalized to a uniform protein concentration with spotting buffer CSBL1 (Zeptosens-Bayer) prior to preparing a final 4-fold concentration series of; 0.2; 0.15; 0.1 and […]. […] A weighted linear fit through the 4-fold concentration series was used to calculate relative fluorescence intensity (RFI) value for each sample replicate. […] Abundance levels of total p53 protein and phosphorylated p53 (Serine 15) were plotted as RFI data calculated by the ZeptoView™ 3.1 software.

HCT116 cells = experiment: Real-time confluence study (Incucyte live-cell imaging); conditions: HCT116, 100 μM, 5 days (120 h)
Experimental: FIGS. 9A and 9B show real-time cell confluence study data for Pro-5FU and 5FU (HCT116 cells in FIG. 9A and BXPc-3 cells in FIG. 9B) plotting cell proliferation (indicated by % phase object confluence) against time. Cell proliferation was monitored for 5 days (120 h) using the high-content live-cell imaging system Incucyte™ (Essen BioScience) placed in an incubator (5% CO2, 37° C.), Pro-5FU and 5FU were used at 100 μM and 10 μM for HCT116 and BXPc-3 cells, respectively.
(§4) To study the phenotypic effect of the prodrug catalyst system compared to 5FU, cell proliferation was monitored for 5 days (120 h) using the high-content live-cell imaging system Incucyte™ Essen BioScience) placed in an incubator (5% CO2, 37° C.). Cell confluence analysis and supplementary movies 1 and 2 were carried out using the Incucyte software. Experiments (performed as described above for the dose response cell viability assay) were imaged by time-lapse contrast phase microscopy and cell growth represented as a function of total cell confluence.

BxPC-3 cells = experiment: as above; conditions: BxPC-3, 30 μM, 5 days (120 h)
Experimental: FIGS. 9A and 9B show real-time cell confluence study data for Pro-5FU and 5FU (HCT116 cells in FIG. 9A and BXPc-3 cells in FIG. 9B) plotting cell proliferation (indicated by % phase object confluence) against time. […]
as §4

pancreatic BxPC-3 cells [4] = experiment: Test for competitive inhibition by prodrug (cell viability); conditions: BxPC-3, 5FU 1 μM + Pro-5FU 0.1-1,000 μM, prodrug/drug ratio up to 100:1
Experimental: (§5) Cells were incubated with 5FU (10 μM for HCT116 cells and 1 μM for BxPC-3 cells) in combination with increasing doses of Pro-5FU (0.1-1,000 μM), and cell viability determined.

colorectal HCT116 cells [5] = experiment: as above; conditions: HCT116, 5FU 10 μM + Pro-5FU 0.1-1,000 μM, prodrug/drug ratio up to 100:1
Experimental: as §5

C=CCn1cc(F)c(=O)[nH]c1=O [All-5FU]
toxigenic effect of prodrug combined with Pd^0-resins (BOOM conversion) (pancreatic BxPC-3 cells [1]): No appreciable cytotoxicity | toxigenic effect of prodrug combined with Pd^0-resins (BOOM conversion) (colorectal HCT116 cells [2]): No appreciable cytotoxicity

O=c1[nH]c(=O)n(Cc2ccccc2)cc1F [Bn-5FU]
toxigenic effect of prodrug combined with Pd^0-resins (BOOM conversion) (pancreatic BxPC-3 cells [1]): low levels of toxicity | toxigenic effect of prodrug combined with Pd^0-resins (BOOM conversion) (colorectal HCT116 cells [2]): low levels of toxicity

O=c1[nH]cc(F)c(=O)[nH]1 [Compound 5FU, 5-fluorouracil]
abundance of total and Ser15-phosphorylated p53 [3]: overexpressed | cell growth (confluence) vs time (HCT116 cells): decreased rapidly after a few hours | cell growth (confluence) vs time (BxPC-3 cells): decreased rapidly after a few hours | EC50 (pancreatic BxPC-3 cells [1]; BXPc-3, 5 days incubation, read-out: EC50 5FU): 0.136 µM | EC50 (pancreatic BxPC-3 cells [1]; BxPC-3, 5 days incubation, read-out: EC50): 0.136 µM | EC50 (colorectal HCT116 cells [2]; Homo sapiens, HCT-116, 120 h, HCT116, 5 days incubation, PrestoBlue, read-out: EC50 5FU): 2 µM

C#CCn1c(=O)[nH]cc(F)c1=O [Compound 6]
cytotoxic effect / effect on cell viability of prodrug alone (colorectal HCT116 cells [2]): no effect

C#CCn1c(=O)c(F)cn([C@H]2CC(O)[C@@H](CO)O2)c1=O (stereo partly shown) [Compound 11, 3-propergyl-floxuridine]
times less cytotoxic effect on cell viability than floxuridine (colorectal HCT116 cells [2]; HCT116, dose range 0.003-30 μM, without palladium): over 1000 times

O=c1[nH]c(=O)n([C@H]2C[C@H](O)[C@@H](CO)O2)cc1F [FUDR, floxuridine]
times more potent than 5-FU (colorectal HCT116 cells [2]): around 50 times

C#CCn1cc(F)c(=O)[nH]c1=O [Pro-5FU]
abundance of total and Ser15-phosphorylated p53 [3]: no induction | effect of prodrug on cytotoxicity of 5FU (pancreatic BxPC-3 cells [4]): no antagonistic effect | effect of prodrug on cytotoxicity of 5FU (colorectal HCT116 cells [5]): no antagonistic effect | fold reduction in effect versus 5FU (pancreatic BxPC-3 cells [1]; BxPC-3, prodrug without palladium): greater than 700 fold | fold reduction in effect, EC50 (Pro-5FU)/EC50 (5FU) (colorectal HCT116 cells [2]; HCT116, prodrug without palladium): greater than 500 fold | cytotoxic effect / effect on cell viability of prodrug alone (colorectal HCT116 cells [2]): no effect
